One data set concerns cell line LM-8. Put plainly: Effects against the implanted highly lung-metastatic tumors in nude mice (Example 8). The data set is classed as in vivo. The protocol:
A cell line LM-8, which is the cell line of a highly lung-metastatic tumor, was subcutaneously implanted in the back of the 11 nude mice of 5 weeks old at 1 million cells/mouse. On the 3rd day after the implantation, body weight and tumor volume of each nude mouse were measured. The mice were divided into two groups so that the variation in tumor volumes and body weights are reduced. That is, one is carbon dioxide absorption group (6 mice) and the other is control group (5 mice) treated in the same way as the carbon dioxide absorption group but without the carbon dioxide absorption treatment. The treatment according to Example 1 was started on the 3rd day after the implantation. The carbon dioxide absorption was done three times-weekly and the treatment was done for 14 days. The carbon dioxide absorption was done a total of 6 times. Tumor volume was calculated by the following equation: (Maximum diameter of implanted tumor mass)×(Minimum diameter of implanted tumor mass)×(Minimum diameter of implanted tumor mass)×½. The measurement of tumor volume was done on the 3rd, 7th, 10th, 14th, 17th and 21st day after the tumor implantation. On the 21st day after the tumor implantation, a lung of each mouse was isolated and the lung weight was measured. The cross-sections of the lung, where the metastasized tumor have been stained by hematoxylin and eosin, were chosen at random and a proportion of the stained area in the cross-section was analyzed by using an image analyzing software ImageJ to obtain the lung metastasis rate of the tumor.

The subject of data set [1] is cell line NaraH. Put plainly: Combined effects with a chemotherapeutic agent against the implanted tumors in nude mice (Example 4). The data set is classed as in vivo. To be noted: t-test; for tumor volume compared to the control group: adriamycin 6 mg/kg, CO2 twice-weekly; for Significance level for control group (tumor volume): P. The protocol:
A cell line NaraH, which is the cell line of a malignant soft tissue tumor, was subcutaneously implanted in the back of the 17 nude mice of 5 weeks old at 12 million cells/mouse. After the implantation, body weight and tumor volume of each nude mouse were measured. The mice were divided into the following 3 groups so that the variation in tumor volumes and body weights are reduced. The treatment according to Example 1 was started on the 3rd day after the implantation (Table 2).
The treatment was done for 9 days. Tumor volume was calculated by the following equation: (Maximum diameter of implanted tumor mass)×(Minimum diameter of implanted tumor mass)×(Minimum diameter of implanted tumor mass)×½. The measurement of tumor volume was done on the 3rd, 7th and 9th day after tumor implantation.

In data set [2] the test system is MFH cell line NaraH. Put plainly: Antitumor effects (1) against the implanted tumors in nude mice (Example 1). The data set is classed as in vivo. The protocol:
An MFH cell line NaraH, which is the cell line of a malignant soft tissue tumor, was subcutaneously implanted in the back of the 10 nude mice of 5 weeks old at 12 million cells/mouse. After the implantation, body weight and tumor volume of each nude mouse were measured. The mice were divided into two groups so that the variation in tumor volumes and body weights are reduced. That is, one is carbon dioxide absorption group and the other is control group treated in the same way as carbon dioxide absorption group but without the carbon dioxide absorption treatment. A treatment was started on the 2nd day after the implantation. After anesthetizing all groups by ether inhalation, the treatment was done according to the patent document 7, that is, an absorption aid for carbon dioxide comprising 93.77% by mass of water, 5% by mass of glycerin, 0.65% by mass of carbomer, 0.15% by mass of sodium alginate, 0.15% by mass of sodium dihydrogen phosphate, 0.18% by mass of sodium hydroxide and 0.10% by mass of methylparaben was applied 2 mm thick to the dorsal skin wherein a tumor has been implanted. […] Tumor volume was calculated by the following equation: (Maximum diameter of implanted tumor mass)×(Minimum diameter of implanted tumor mass)×(Minimum diameter of implanted tumor mass)×[…]. […]

The subject of the next data set is MDA-MB-231. The data set is described as follows: Combined effects with a chemotherapeutic agent against the implanted malignant breast carcinoma in nude mice (Example 5). The data set is classed as in vivo. To be noted: t-test; for tumor volume compared to the control group: 15th day after tumor implantation (so in the source), adriamycin 4 mg/kg; for Significance level for control group (tumor volume): P, 15th day, Table 6. The protocol:
(§1) MDA-MB-231, a cell line of a malignant breast carcinoma, was subcutaneously implanted in the back of the 18 nude mice of 5 weeks old at 12 million cells/mouse. On the 53rd day after the implantation, body weight and tumor volume of each nude mouse were measured. The mice were divided into the following 4 groups so that the variation in tumor volumes and body weights are reduced. The treatment was done according to Example 1 (Table 5).
The starting date of the test was defined as the 0 day and each treatment was done on the 1st, 5th, 8th, 12th and 15th day. Tumor volume was calculated by the following equation: (Maximum diameter of implanted tumor mass)×(Minimum diameter of implanted tumor mass)×(Minimum diameter of implanted tumor mass)×½. The measurement of tumor volume was done on the 8th and 15th day after tumor implantation. The measurement of body weights of the nude mice as an indication of a side effect was done on the 8th and 15th day after tumor implantation.

The subject of data set [3] is MFH cell line NaraH. The data set is described as follows: Antitumor effects (2) against the implanted tumors in nude mice (Example 2). In kind it is in vivo. The protocol: An MFH cell line NaraH, which is the cell line of a malignant soft tissue tumor, was subcutaneously implanted in the back of the 12 nude mice of 5 weeks old at 12 million cells/mouse. After the implantation, body weight and tumor volume of each nude mouse were measured. The mice were divided into 2 groups so that the variation in tumor volumes and body weights are reduced. That is, one is carbon dioxide absorption group and the other is control group treated in the same way as carbon dioxide absorption group but without the carbon dioxide absorption treatment. The treatment according to Example 1 was started on the 3rd day after the implantation. The carbon dioxide absorption was done twice-weekly and the treatment was done for 14 days. The carbon dioxide absorption was done a total of 3 times. Tumor volume was calculated by the following equation: (Maximum diameter of implanted tumor mass)×(Minimum diameter of implanted tumor mass)×(Minimum diameter of implanted tumor mass)×½. The measurement of tumor volume was done on the 3rd, 7th, 10th and 14th day after the tumor implantation.

Data set [4] concerns cell line NaraH. Put plainly: Antitumor effects (3) against the implanted tumors in nude mice, two regimens (Example 3). In kind it is in vivo. As to conditions: t-test. The protocol:
An MPH cell line NaraH, which is the cell line of a malignant soft tissue tumor, was subcutaneously implanted in the back of the 20 nude mice of 5 weeks old at 12 million cells/mouse. After the implantation, body weight and tumor volume were measured. The mice were divided into the following 3 groups so that the variation in tumor volumes and body weights are reduced. The treatment according to Example 1 was started on the 3rd day after the implantation (Table 1).
The treatment was done for 16 days. Tumor volume was calculated by the following equation: (Maximum diameter of implanted tumor mass)×(Minimum diameter of implanted tumor mass)×(Minimum diameter of implanted tumor mass)×½. The measurement of tumor volume was done on the 3rd, 7th, 10th, 14th and 16th day after tumor implantation.

Data set [5] has as its system breast carcinoma cell line MDA-MB-231. The data set is described as follows: Antitumor effects (4) of a single dose against the implanted tumors in nude mice (Example 7). The data set is classed as in vivo. As to conditions: 3rd day after starting of the treatment; single treatment (CO2 10 minutes; adriamycin 3 mg/kg); FIG. 14. The protocol:
(§2) A breast carcinoma cell line MDA-MB-231, which is […], was subcutaneously implanted in the back of the 23 nude mice of 5 weeks old at 20 million cells/mouse. On the 18th day after the implantation, body weight and tumor volume of each nude mouse were measured. The mice were divided into the following 4 groups so that the variation in tumor volumes and body weights are reduced. The treatment was done according to Example 1 (Table 8), but only once.
Tumor volume was calculated by the following equation: (Maximum diameter of implanted tumor mass)×(Minimum diameter of implanted tumor mass)×(Minimum diameter of implanted tumor mass)×½. The measurement of tumor volume was done on the 3rd day after starting of the treatment.

Data set [6] in a line: Body weight as an indicator of the side effect after a single dose (Example 7). The data set is classed as in vivo, nude mice. To be noted: single treatment (CO2 10 minutes; adriamycin 3 mg/kg); FIG. 15. The protocol: as §2
Data set [7] is described as follows: Body weight of tumor-bearing nude mice as an indication of a side effect (Example 5). As to conditions: FIG. 12; for weight reduction as an indicator of a side effect compared to the control group: adriamycin 4 mg/kg. In kind it is in vivo. The protocol: as §1, with “5). […] The starting date of the test was defined as the 0 day and each treatment was done on the 1st, 5th, 8th, 12th and 15th day. Tumor volume was calculated by the following equation: (Maximum diameter of implanted tumor mass)×(Minimum diameter of implanted tumor mass)×(Minimum diameter of implanted tumor mass)×½. The measurement of tumor volume was done on the 8th and 15th day after tumor implantation. The measurement of body weights of the nude mice as an indication of a side effect was done on the 8th and 15th day after tumor implantation.” for “5).”

The mark [8] stands for this setting: 7th day after tumor implantation.
The mark [9] stands for this setting: 9th day after tumor implantation.
The mark [10] stands for this setting: 7th day after tumor implantation, Table 3.
Setting [11] is: 9th day after tumor implantation, Table 4.
[12] abbreviates: 14 days treatment, twice-weekly CO2 absorption.

With `O=C=O` [carbon dioxide], the “lung weights compared to the control group” value with cell line LM-8 (21st day after tumor implantation, CO2 three times-weekly, total of 6 times, t-test, FIG. 16) was “statistically significantly reduced”. Further, in the data set with cell line LM-8 (21st day after tumor implantation, proportion of stained area in lung cross-section, t-test, FIG. 17), the “lung metastasis rates compared to the control group” value is listed as “statistically significantly reduced”. Besides, in the data set with cell line LM-8 (21st day, t-test, FIG. 16), the “significance level (P) of lung weight reduction compared to the control group” value is < 0.05. Further, the “significance level (P) of lung metastasis rate reduction compared to the control group” value in the data set with cell line LM-8 (21st day, t-test, FIG. 17) is < 0.05. The “deaths during the experiment period” value with cell line LM-8 (CO2 three times-weekly for 14 days) and with MFH cell line NaraH [2] (setting [12]) was “no deaths” throughout. In addition, the “subcutaneously-implanted tumor volumes compared to the control group” value in the data set with cell line LM-8 (CO2 three times-weekly, total of 6 times, t-test, FIG. 18) is listed as “statistically significantly reduced”. Also, in the data set with cell line LM-8 (t-test, FIG. 18), the “significance level (P) of subcutaneously-implanted tumor volume reduction compared to the control group” value was < 0.05. Also, the “tumor volume compared to the control group” value with cell line NaraH [1] (setting [8]) is reported as “statistically significantly reduced”; in the data set on cell line NaraH [1] (setting [9]) it was “statistically significantly reduced”; with MFH cell line NaraH [2] (16th day after tumor implantation, transdermal CO2 absorption 10 minutes, twice-weekly, total of 4 times, t-test, FIG. 1), “statistically significantly reduced”; in the data set on MDA-MB-231, “statistically significantly reduced”; in the data set on MFH cell line NaraH [3] (14th day after tumor implantation, twice-weekly, total of 3 times, t-test, FIG. 2), “statistically significantly reduced”; in the data set on cell line NaraH [4] (group of 5 times-weekly administration early in treatment (5 consecutive days from first day), FIG. 4), “statistically significantly reduced”. Moreover, the “tumor volume compared to the control group” value with cell line NaraH [4] (group of twice-weekly administration, treatment 16 days, FIG. 3) is “statistically significantly reduced”. Besides, the entries for the “Significance level for control group (tumor volume)” value with cell line NaraH [1] (setting [10]), in the data set with cell line NaraH [1] (setting [11]) and in the data set with MDA-MB-231 were “P < 0.001”, “P < 0.05” and “P < 0.001”, respectively. The “deaths during experimental period” value in the data set with MFH cell line NaraH [3] (setting [12]) is given as “no deaths”. Also, the “tumor volume relative to initial volume” value in data set [5] is on record as “reduced to two-thirds of initial volumes”. Moreover, the “body weight reduction as an indicator of the side effect” value in [6] is “not observed”. In addition, the “weight reduction as an indicator of a side effect compared to the control group” value in [7] is given as “significant weight reduction was not found”.

Consider `COc1cccc2c1C(=O)c1c(O)c3c(c(O)c1C2=O)C[C@@](O)(C(=O)CO)C[C@@H]3O[C@H]1C[C@H](N)[C@H](O)[C@H](C)O1` [chemotherapeutic agent, adriamycin, reference compound], for which the “tumor volume compared to the control group” value in the data set with cell line NaraH [1] (setting [8]), with cell line NaraH [1] (setting [9]) and with MDA-MB-231 was “statistically significantly reduced” in each case. Besides, the “Significance level for control group (tumor volume)” value in the data set with cell line NaraH [1] (setting [10]) is given as “P < 0.005”; with cell line NaraH [1] (setting [11]) it was “P < 0.05”; in the data set on MDA-MB-231 it was “P < 0.005”. In addition, the “tumor volume relative to initial volume” value in data set [5] is “not changed”. The “body weight reduction as an indicator of the side effect” value in [6] is “reduced”. Moreover, the “significance level (P) of weight reduction compared to the carbon dioxide-alone group” value in data set [7] is reported as < 0.05. In addition, the “weight reduction compared to the carbon dioxide-alone group” value in data set [7] is given as “Significant weight reduction was found”. For the same molecule, in data set [7], the “weight reduction as an indicator of a side effect compared to the control group” value is on record as “statistically significant”.

Values taken from patent US20140017157A1, “ANTITUMOR AGENT COMPRISING CARBON DIOXIDE AS AN ACTIVE INGREDIENT” (NEOCHEMIR INC., priority 2011, published 2014).
